{"source": "paper PMC12648656", "about": "“Palladium(II) Complexes with Noncovalent Interactions with DNA: Solution Speciation Controlled by Solvent Identity, pH, and Concentration” (Inorganic Chemistry, 2025)", "key": {"[1]": {"target": "T1, hen egg white lysozyme (HEWL) (Gallus gallus, UniProt P00698)", "T1 construct": "a model protein, namely HEWL (hen egg white lysozyme), was also studied; from tissue; host or cells: hen egg white (from the protein's name)", "T1 sequence (P00698 19-147)": "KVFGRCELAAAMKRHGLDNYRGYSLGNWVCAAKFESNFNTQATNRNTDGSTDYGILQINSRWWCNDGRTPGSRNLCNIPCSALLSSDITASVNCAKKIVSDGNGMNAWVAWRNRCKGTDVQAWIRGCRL", "test": "Reaction with lysozyme followed by UV-vis at 280 nm, pseudo-first-order kinetics", "type": "binding", "conditions": "metal:protein 3:1, 5 mM Tris/3% DMSO, 37 °C, absorbance at 280 nm", "method": "The interaction of complexes (2) and (3) with hen egg white lysozyme (HEWL) was investigated using a 10^–5 M solution of the protein. Lysozyme is a widely used model protein for studying the binding of potential metallodrugs. The sample preparation for this assay was carried out using the same protocol of the samples for the DNA interactions studies by UV–vis spectrophotometry. The integrity of the enzyme was checked in each experiment, with a comparison of fresh and incubated samples. UV–vis spectra were recorded before and after incubation with the complex (dissolved in 97% 5 mM Tris/3% DMSO) for 24 h at 37 °C. A metal to protein ratio of 3:1 was used for these studies, a ratio that affords similar results to 10:1 and eases the sample preparation. The experimental time-dependent profiles of the spectra were analyzed as pseudo-first-order reactions by plotting the variation of the absorbance as a function of time."}, "[2]": {"test": "Stability in physiological buffers (Tris, phosphate, HEPES) by UV-vis", "type": "physicochemical", "method": "The reaction of the metal complexes (2) and (3) with buffer components was followed in an array of DMSO percentages, from 1% to 60% (v/v) DMSO/H2O (pH 7.4) medium. The samples were prepared by dilution of the stock solution of the respective complex in DMSO (5 mM) with 5 mM Tris 1% (v/v) DMSO/H2O or 5 mM phosphate buffers 60% (v/v) DMSO/H2O (pH 7.40 in both cases), reaching a final concentration of 10^–6 to 10^–4 M. The UV–vis spectra of the final samples were followed over time at 37 °C for up to 24 h."}, "[3]": {"test": "n-Octanol/water and n-octanol/Tris buffer shake-flask partitioning", "type": "physicochemical", "method": "The distribution coefficient values (D 7.4) of the compounds were determined by the traditional shake-flask method in n-octanol/buffered aqueous solution at pH 7.40 for 5 mM Tris HCl with 0.1 M KCl and at pH 7.4 at 25.0 ± 0.2 °C. The ligand and complexes were dissolved in n-octanol (presaturated by the aqueous buffer) because of the very low aqueous solubility. The aqueous buffer solution and n-octanol ratio was 1:1 due to the expected high lipophilicity of the compounds. First, samples were mixed with vertical rotation (∼20 rpm) for 3 h, and then the two phases were separated by centrifugation at 3000 rpm (∼1000g) for 3 min. After separation, UV–vis spectra of the compounds were recorded in both phases. Spectra of the n-octanol phases were compared to those of the original n-octanol stock solutions.\nThe distribution coefficient values were also determined using unbuffered water and octanol (also presaturated) with a ratio of 1:1."}, "[4]": {"system": "Colo 205 human colon cancer cell line", "test": "In vitro cytotoxicity, MTT", "type": "cell-based", "conditions": "Colo 205, 72 h exposure", "method": "(§1) Cell culture reagents were obtained from Merck, and plasticware was obtained from Sarstedt. Human colon adenocarcinoma cell line Colo 205 (ATCC CCL-222) and MCF7 (ATCC HTB-22) breast cancer cells were purchased from LGC Promochem. Cancer cells were cultured in RPMI 1640 medium supplemented with 10% heat-inactivated fetal bovine serum, 2 mM L-glutamine, and 1 mM sodium pyruvate and buffered with 100 mM HEPES. The cells were incubated at 37 °C in a 5% CO2, 95% air atmosphere and were detached with Trypsin-Versene (EDTA) solution for 5 min at 37 °C.\n(§2) The tested ligands were dissolved in DMSO, and the stock solutions (5 mM) were diluted in complete culture medium. Two-fold serial dilutions of compounds were made in 100 μL of the medium, horizontally. The semiadherent colon adenocarcinoma cells were treated with Trypsin-Versene (EDTA) solution. They were adjusted to a density of 1 × 10^4 cells in 100 μL of RPMI 1640 medium and were added to each well, with the exception of the medium control wells. The final volume of the wells containing compounds and cells was 200 μL. The plates containing the cells were incubated at 37 °C for 72 h; at the end of the incubation period, 20 μL of MTT solution (5 mg/mL) was added to each well. After incubation at 37 °C for 4 h, 100 μL of sodium dodecyl sulfate solution (10% in 0.01 M HCl) was added to each well, and the plates were further incubated at 37 °C overnight. Cell growth was determined by measuring the optical density (OD) at 540 and 630 nm with a Multiskan EX plate reader (Thermo Labsystems).\n(§3) Curves for the data obtained on cancer cells were fitted by GraphPad Prism software using the sigmoidal dose–response model (comparing variable and fixed slopes). The IC50 values were always obtained from at least three independent experiments."}, "[5]": {"system": "MCF7 human breast cancer cell line", "test": "In vitro cytotoxicity, MTT", "type": "cell-based", "conditions": "MCF7, 72 h exposure", "method": "as §1, §2, §3"}, "[6]": {"test": "Spectrophotometric (UV-vis) pH titrations for proton dissociation constants", "type": "physicochemical", "conditions": "60% (v/v) DMSO/H2O", "method": "Spectrophotometric titrations were applied to study the equilibrium processes (proton dissociation and complex dissociation/formation) in DMSO/H2O mixtures due to the limited aqueous solubility of the compounds. The calibration of the electrode system was performed by strong acid–strong base pH-potentiometric titrations in 30% (v/v) and 60% (v/v) DMSO/H2O solvent mixtures at 25.0 ± 0.1 °C as described in our previous works. , KCl (0.1 M) was the supporting electrolyte to maintain constant ionic strength, which refers to the chloride ion concentration in blood plasma. […] The initial sample volume was 5 mL. Spectrophotometric titrations were performed in the pH range 1.8–12.5 for 30% (v/v) DMSO/H2O medium and 1.8–14.0 for 60% (v/v) DMSO/H2O medium. Prior to the titrations, purified argon was passed through the samples for approximately 10 min to remove CO2 traces, and argon was also passed over the samples during these measurements. The proton dissociation constants were calculated by using the computer program PSEQUAD."}, "[7]": {"test": "HPLC analysis of aqueous solution integrity", "type": "physicochemical", "conditions": "20 μM in 3% DMSO aqueous solution, after 24 h, 254 nm", "method": "Prior to the injection to the column, 20 μL was taken and diluted with 180 μL of HPLC-grade acetonitrile at various time points (t = 0 and 24 h). 20 μL of this diluted sample was injected in the Zorbax Eclipse Plus C18 column (4.6 × 100 mm, 3.5 μm): flow rate, 1 mL/min; detection, UV 254 nm; flow solvent system A/B (acetonitrile/water, v/v): 70:30 and analyzed with 254 nm radiation up to 10 min."}}, "data": [{"compound": "Clc1ccc(N=C2N[N+](=Cc3c[nH]cn3)[Pd-2]3([S]C(Nc4ccc(Cl)cc4)=N[N+]3=Cc3c[nH]cn3)[S]2)cc1", "note": "(stereo not shown) [(2), Bis(1H-imidazole-4-carboxaldehyde-4N-p-chlorophenylthiosemicarbazonato)palladium(II)]", "values": [{"measurement": "observed rate constant k obs", "setting": "[1]", "value": "(8.83 ± 0.05) × 10^–5 s^–1"}, {"measurement": "behaviour in HEPES buffer", "setting": "[2]; HEPES, pH 7.4, 0.1 M chloride, 60% DMSO", "value": "formed precipitation"}, {"measurement": "time stable in solution, no precipitation", "setting": "[2]; Tris buffer containing 3% (v/v) DMSO, pH 7.4, 20.0 μM", "value": "up to 24 h"}, {"measurement": "stability after 24 h", "setting": "[2]; Tris buffer, 60% DMSO", "value": "decreased the stability"}, {"measurement": "behaviour in phosphate buffer", "setting": "[2]; pH 7.4, 0.1 M chloride, 3% (v/v) DMSO", "value": "precipitated"}, {"measurement": "behaviour in phosphate buffer", "setting": "[2]; pH 7.4, 0.1 M chloride, 60% (v/v) DMSO, first 10 h", "value": "major structural changes"}, {"measurement": "log D o/t", "setting": "[3]; n-octanol/5 mM Tris HCl with 0.1 M KCl, pH 7.40, 25.0 °C", "value": "+2.32 ± 0.16"}, {"measurement": "log D o/w", "setting": "[3]; n-octanol/pure (unbuffered) water, 1:1", "value": "+1.70 ± 0.06"}, {"measurement": "IC50", "setting": "[4]", "value": "11.8 ± 0.35", "unit": "µM"}, {"measurement": "IC50", "setting": "[5]", "value": "1.55 ± 0.03", "unit": "µM"}, {"measurement": "pKa1", "setting": "[6]; I = 0.10 M (KCl), 25.0 °C", "value": "2.97 ± 0.02"}, {"measurement": "pKa2", "setting": "[6]; I = 0.10 M (KCl), 25.0 °C", "value": "8.40 ± 0.02"}, {"measurement": "pKa3", "setting": "[6]; I = 0.10 M (KCl), 25.0 °C", "value": "11.31 ± 0.01"}, {"measurement": "reduction of proton dissociation constant of step I compared to the ligand", "setting": "[6]; same medium", "value": 0.8, "unit": "logarithm units"}, {"measurement": "reduction of proton dissociation constant of step II compared to the ligand", "setting": "[6]; same medium", "value": 2.7, "unit": "logarithm units"}, {"measurement": "integral of the HPLC signal of intact complex", "setting": "[7]", "value": "only slightly diminished"}]}]}
